The test system of the first series is human PKA catalytic subunit C-alpha mRNA. The experiment in a line: Inhibition of PKA catalytic subunit C-alpha mRNA levels in oligonucleotide-treated cells, quantitative real-time PCR. The format is cell-based. Details: concentration or dose not given beside the values. The following applies: Table 1, phosphorothioate oligodeoxynucleotides, averages from two experiments. On the procedure: when cells reached 80% confluency, they were treated with oligonucleotide. For cells grown in 96-well plates, wells were washed once with 200 μL. OPTI-MEM™-1 reduced-serum medium (Gibco BRL) and then treated with 130 μL of OPTI-MEM™-1 containing 3.75 μg/mL LIPOFECTIN™ (Gibco BRL) and the desired concentration of oligonucleotide. After 4-7 hours of treatment, the medium was replaced with fresh medium. Cells were harvested 16-24 hours after oligonucleotide treatment.
Poly(A)+ mRNA was isolated according to Miura et al., Clin. Chem., 1996, 42, 1758-1764. Other methods for poly(A)+ mRNA isolation are taught in, for example, Ausubel, F. M. et al., Current Protocols in Molecular Biology, Volume 1, pp. 4.5.1-4.5.3, John Wiley & Sons, Inc., 1993. Briefly, for cells grown on 96-well plates, growth medium was removed from the cells and each well was washed with 200 μL cold PBS. 60 μL lysis buffer (10 mM Tris-HCl, pH 7.6, 1 mM EDTA, 0.5 M NaCl, 0.5% NP-40, 20 mM vanadyl-ribonucleoside complex) was added to each well, the plate was gently agitated and then incubated at room temperature for five minutes. 55 μL of lysate was transferred to Oligo d(T) coated 96-well plates (AGCT Inc., Irvine Calif.). Plates were incubated for 60 minutes at room temperature, washed 3 times with 200 μL of wash buffer (10 mM Tris-HCl pH 7.6, 1 mM EDTA, 0.3 M NaCl). After the final wash, the plate was blotted on paper towels to remove excess wash buffer and then air-dried for 5 minutes. 60 μL of elution buffer (5 mM Tris-HCl pH 7.6), preheated to 70° C. was added to each well, the plate was incubated on a 90° C. hot plate for 5 minutes, and the eluate was then transferred to a fresh 96-well plate.
Quantitat:ion of PKA catalytic subunit C-alpha mRNA levels was determined by real-time quantitative PCR using the ABI PRISM™ […] Sequence Detection System (PE-Applied Biosystems, Foster City, Calif.) according to manufacturer's instructions. This is a closed-tube, non-gel-based, fluorescence detection system which allows high-throughput quantitation of polymerase chain reaction (PCR) products in real-time. As opposed to standard PCR, in which amplification products are quantitated after the PCR is completed, products in real-time quantitative PCR are quantitated as they accumulate. This is accomplished by including in the PCR reaction an oligonucleotide probe that anneals specifically between the forward and reverse PCR primers, and contains two fluorescent dyes. A reporter dye (e.g., JOE, FAM, or VIC, obtained from either Operon Technologies Inc., Alameda, Calif. or PE-Applied Biosystems, Foster City, Calif.) is attached to the 5' end of the probe and a quencher dye (e.g., TAMRA, obtained from either Operon Technologies Inc., Alameda, Calif. or PE-Applied Biosystems, Foster City, Calif.) is attached to the 3' end of the probe. When the probe and dyes are intact, reporter dye emission is quenched by the proximity of the 3' quencher dye. During amplification, annealing of the probe to the target sequence creates a substrate that can be cleaved by the 5'-exonuclease activity of Taq polymerase. […] With each cycle, additional reporter dye molecules are cleaved from their respective probes, and the fluorescence intensity is monitored at regular intervals by laser optics built into the ABI PRISM™ 7700 Sequence Detection System. In each assay, a series of parallel reactions containing serial dilutions of mRNA from untreated control samples generates a standard curve that is used to quantitate the percent inhibition after antisense oligonucleotide treatment of test samples.
PCR reagents were obtained from PE-Applied Biosystems, Foster City, Calif. […]
On the technique in general: In qPCR the cycle at which signal appears reflects the starting amount.
Regarding “102436 (antisense TGGCTGCGGCCGGCGGCCCG; chemistry not given here) [compound 102436]”, the “% Inhibition of PKA catalytic subunit C-alpha mRNA levels” value (“% Inhibition” below) was 49%. Regarding “102438 (antisense GCGGCGGGTGCTGGCTGCGG; chemistry not given here) [compound 102438]”, the “% Inhibition” value was 15%.

With “102440 (antisense TCGCGGCGGCGGCGGCCGGG; chemistry not given here) [compound 102440]”, the “% Inhibition” value is reported as 19%. Take “102442 (antisense CATCGCGGCGGCGGCGGCCG; chemistry not given here) [compound 102442]”: the “% Inhibition” value is listed as 49%. Turning to “102444 (antisense CCCATCGCGGCGGCGGCGGC; chemistry not given here) [compound 102444]”, the “% Inhibition” value was 47%. Same read-out and setting: the result for “102446 (antisense TGCCCATCGCGGCGGCGGCG; chemistry not given here) [compound 102446]” reads 29%; that for “102448 (antisense GTTGCCCATCGCGGCGGCGG; chemistry not given here) [compound 102448]”, 47%. As to “102450 (antisense GCGTTGCCCATCGCGGCGGC; chemistry not given here) [compound 102450]”, the “% Inhibition” value was found to be 64%. Still for that read-out and setting: next, “102454 (antisense CGGCGTTGCCCATCGCGGCG; chemistry not given here) [compound 102454]”: 53%. With “102458 (antisense GGCGGCGTTGCCCATCGCGG; chemistry not given here) [compound 102458]”, the “% Inhibition” value was 69%. “102462 (antisense GCGGCGGCGTTGCCCATCGC; chemistry not given here) [compound 102462]”: the “% Inhibition” value came out at 67%. With “102466 (antisense CGGCGGCGGCGTTGCCCATC; chemistry not given here) [compound 102466]”, the “% Inhibition” value came to 79%. Same read-out and setting: next, “102470 (antisense GGCGGCGGCGGCGTTGCCCA; chemistry not given here) [compound 102470]”: 49%; “102474 (antisense ATTCTTTCACGCTCTCCTGC; chemistry not given here) [compound 102474]”: 3%; “102478 (antisense CAAACTGATCCAAGTGGGCT; chemistry not given here) [compound 102478]”: 73%. Take “102482 (antisense CCAGCATCACCCGCCCGAAG; chemistry not given here) [compound 102482]”: the “% Inhibition” value came out at 66%.

“102486 (antisense CTTCTGTTTGTCGAGGATCT; chemistry not given here) [compound 102486]”: the “% Inhibition” value is on record as 51%.

Turning to “102490 (antisense GCTTGCAGGATGCGCTTTTC; chemistry not given here) [compound 102490]”, the “% Inhibition” value amounted to 66%. Still for that read-out and setting: next, “102494 (antisense GTTGTCCTTGAAGGAGAACT; chemistry not given here) [compound 102494]”: 0%; “102498 (antisense GAACATCTCCCCGCCGGGCA; chemistry not given here) [compound 102498]”: 13%. “102502 (antisense TAGATGAGATCCAGCGAGTG; chemistry not given here) [compound 102502]”: the “% Inhibition” value came out at 28%. On to “102506 (antisense GCGGCCCTTCACGCGCTTGG; chemistry not given here) [compound 102506]”, for which the “% Inhibition” value came out at 0%.

As for “102510 (antisense TCTGCGAAGAAGGGCGGGTA; chemistry not given here) [compound 102510]”, the “% Inhibition” value was 0%. On the same count and under the same terms, the result for “102514 (antisense TCCTTCAAGTCAGAGCTGAA; chemistry not given here) [compound 102514]” reads 44%; that for “102518 (antisense AAACCACTTGTGGTTCTTGA; chemistry not given here) [compound 102518]”, 34%; that for “102522 (antisense CTTCCTCATAGTCGTCAAAG; chemistry not given here) [compound 102522]”, 32%. Regarding “102526 (antisense GGCATGCCCCTAAAACTCAG; chemistry not given here) [compound 102526]”, the “% Inhibition” value is 45%.

For the substance “102530 (antisense GGAGCAGCTGGTGTTTCTGT; chemistry not given here) [compound 102530]”, the “% Inhibition” value came to 39%. On to “102534 (antisense TTGGCGCTTCGTTCATTTGC; chemistry not given here) [compound 102534]”, for which the “% Inhibition” value is recorded as 39%.

Take “102538 (antisense AAGCAACCCACTGAACATGT; chemistry not given here) [compound 102538]”: the “% Inhibition” value was found to be 38%. As to “102543 (antisense GCTTCTCTTTAAAATGGATT; chemistry not given here) [compound 102543]”, the “% Inhibition” value is on record as 16%. In the case of “102547 (antisense ACCCTCGCAGGATTGGCAGA; chemistry not given here) [compound 102547]”, the “% Inhibition” value stood at 53%. Regarding “102553 (antisense CGCTGCTGGGAGGAAAGACT; chemistry not given here) [compound 102553]”, the “% Inhibition” value is recorded as 52%. Consider “102558 (antisense TGCAGGGATGCCCTCCCCAC; chemistry not given here) [compound 102558]”, for which the “% Inhibition” value was determined as 65%. Consider “102563 (antisense CCTTGAACCCCGGGCCGTGG; chemistry not given here) [compound 102563]”, for which the “% Inhibition” value was determined as 56%.

Regarding “102568 (antisense CAGGCAGCCCCTCCCCAGCA; chemistry not given here) [compound 102568]”, the “% Inhibition” value amounted to 49%.

“102573 (antisense AGCACAAATGAGAAAGTGGG; chemistry not given here) [compound 102573]”: the “% Inhibition” value worked out at 7%. Consider “102579 (antisense TGGCTCCCCAGCGGCTCCCC; chemistry not given here) [compound 102579]”, for which the “% Inhibition” value is 36%. The same measure, in the same setting: the result for “102584 (antisense CACACAGGTTGAATCGCCCC; chemistry not given here) [compound 102584]” reads 61%. Turning to “102589 (antisense TAGTTTTCAAATATGTTTAC; chemistry not given here) [compound 102589]”, the “% Inhibition” value came to 0%.

The series is the same for the next values; noted with them: Table 2, chimeric phosphorothioate 2'-MOE gapmers, averaged from two experiments.
In the case of “102594 (antisense TGGCTGCGGCCGGCGGCCCG; chemistry not given here) [compound 102594]”, the “% Inhibition” value is given as 55%.

The record behind these values is US6248586A, “Antisense modulation of PKA catalytic subunit C-alpha expression” (Isis Pharmaceuticals, Inc., priority 1999, dated 2001).
